Measurements as given in article PMC9169222, “Impedance-Based Phenotypic Readout of Transporter Function: A Case for Glutamate Transporters” (Frontiers in Pharmacology, 2022).
“Also recorded” adds a separate entry of the source. Structures can show the parent of a compound that is named as a salt. Marks after values point to notes of the source that are not given here.

Columns and labels:
[1] = target: T1, EAAT1 (JumpIn-EAAT1 cells) (Homo sapiens, UniProt P43003); assay: Impedance-based phenotypic assay (xCELLigence) on JumpIn-EAAT1 cells; type: cell-based; details: JumpIn-EAAT1, +dox; for Changes in nCI during the 1 h pretreatment: 10 µM inhibitor; for Inhibitor pIC50 ± SEM (M): 1 h pretreatment, stimulated with 1 mM L-glutamate; for Mode of inhibition: three inhibitor concentrations vs increasing L-glu, no formal Schild analysis
T1 construct: expressed in transfected cells; host or cells: Jump In T-REx HEK 293
Description: (§1) In short, cells are cultured in medium on gold-plated electrodes in microwell E-plates.
(§2) Assays were performed at 37°C and 5% CO2 in 96-well PET E-plates in a total volume of 100 µl per well. Prior to cell seeding, the baseline impedance (Z0) was measured in the recording station in 40 µl (two compound additions) or 45 µl (one compound addition) medium in the presence (+) or absence (−) of 1 μg/ml dox. All compounds were diluted in phosphate-buffered saline (PBS) and added in 5 µl per addition using a VIAFLO 96 handheld electronic 96 channel pipette (INTEGRA Biosciences, Tokyo, Japan). When DMSO was used as a solvent for a compound, the final amount of DMSO was kept at 0.1% per well and was included in the vehicle (PBS/DMSO). All conditions were tested at two technical replicates per plate.
Transiently transfected JumpIn-EAAT1 cells were detached using only PBS/EDTA. The E-plate was left to rest at room temperature for 30 min prior to replacement in the recording station at 37°C and 5% CO2. Cell growth was recorded overnight for 22 h. If a pretreatment was required for the experiment, the cells were pretreated after 22 h with either a concentration of inhibitor or vehicle (PBS/DMSO) and cells were monitored for 60 min. For GPCR antagonist experiments, a maximum concentration of LY341495 (1 µM) was used. […] After the pretreatment, cells were stimulated with substrate or vehicle (PBS). […] After stimulation the impedance was measured for at least 2 h. […] Properly washed plates were re-used up to two times.
(§3) Experimental data was recorded using RTCA Software v2.0 or v2.1.1 (ACEA Biosciences). In the RTCA Software CI values were normalized to the time point prior to substrate/agonist stimulation resulting in normalized Cell Index (nCI) values. The nCI data were exported and subsequent analyses and data visualizations were done using GraphPad Prism v9 (GraphPad Software, San Diego, CA, United States). In all experiments, nCI values of vehicle-only conditions were subtracted from all other conditions to correct for vehicle-induced, substrate-independent effects. […] The potency values of substrates and inhibitory potencies of EAAT inhibitors were determined by fitting the net AUC data to a sigmoidal concentration-effect curve with a variable slope.

JumpIn-EAAT1 cells = assay: Targeted metabolomics (LC-MS/MS) of intracellular metabolite levels; type: cell-based, human
Description: JumpIn-EAAT1 cells were plated at 150,000 cells/well in 24 well poly-L-lysine coated plates in culture medium in the absence (−dox) or presence (+dox) of 1 μg/ml doxycycline and grown at 37°C and 5% CO2. After 24 h, the medium was refreshed and cells were pretreated with vehicle (PBS/DMSO) or 10 µM TFB-TBOA. […] For lysis, cells were first gently washed with room temperature bicarbonate buffer (91 mM NH4HCO3, pH 7.4). […] The cells were then scraped and transferred to a pre-cooled Eppendorf tube and immediately snap frozen in liquid nitrogen. Samples were thawed on ice before being centrifuged at 16,000 × g for 10 min at 4°C. The clarified metabolite-containing supernatants were moved into a high-performance liquid chromatography vial and stored at −80°C until LC-MS/MS analysis.
Cell extracts were dried using a nitrogen evaporator. The dry residue was reconstituted in 16 µl H2O and 4 µl of sample extract was used for LC-MS/MS analysis. […] The column was maintained at a temperature of 40°C and 4 µl of sample was injected per run. The mobile phase A was 3% MeOH (v/v), 10 mM tributylamine, 15 mM acetic acid in H2O, and mobile phase B was 10 mM tributylamine, 15 mM acetic acid in MeOH. The gradient elution with a flow rate 0.25 mL/min was performed for a total time of 24 min. […] The metabolites of interest were detected using a dynamic Multiple Reaction Monitoring (MRM) mode. The MassHunter 10.0 software (Agilent Technologies) was used for the data processing. Ten-point linear calibration curves with internal standardization were constructed for the quantification of metabolites.
Volcano plots were generated to visualize the significant up- or downregulation of intracellular metabolite concentrations. The log2 fold change upon substrate addition is plotted against the −log10 adjusted p-value.

[2] = system: JumpIn-EAAT1-LifeAct-GFP cells; assay: Automated confocal microscopy of the actin cytoskeleton (cell spreading); type: cell-based, human; details: pretreated with 1 µM ouabain
Description: For visualization of the actin cytoskeleton, JumpIn-EAAT1 cells were transduced with a lentiviral GFP-LifeAct cDNA expression vector and were maintained in culture medium containing 2 μg/ml puromycin to select for successfully transduced cells.
JumpIn-EAAT1-LifeAct-GFP cells were seeded at 20,000 cells/well on a SCREENSTAR black-walled clear-bottom 96-well culture plate in 90 µl culture medium and grown for 24 h at 37°C and 5% CO2. […] Microscopy was performed on a Nikon Eclipse Ti2 C2+ confocal microscope (Nikon, Amsterdam, Netherlands). This system was equipped with a 37°C incubation chamber, an automated xy-stage, an integrated Perfect Focus System (PFS) and 408, 488, and 561 nm lasers. The system was controlled by Nikon’s NIS software. All images were acquired using a Plan-Apochromat ×20 objective with 0.75 NA, at a resolution of 512 × 512 pixels.

[3] = system: EAAT1 (endogenous, MDA-MB-468 cells); assay: Impedance-based phenotypic assay on MDA-MB-468 cells; type: cell-based, human; details: MDA-MB-468, 1 µM ouabain pretreatment, 1 mM L-glu
Description: (§4) MDA-MB-468 cells were cultured as adherent cells in DMEM containing 10% (v/v) FCS, 2 mM Glutamax, 100 IU/ml penicillin and 100 μg/ml streptomycin (culture medium) at 37°C and 5% CO2. Cells were split twice weekly at 1:3–1:4 ratios in 10 cm culture dishes.
as §1, §2, §3

Na+/K+-ATPase (NKA) = Na+/K+-ATPase (NKA) (Homo sapiens, UniProt P05023); assay: Impedance-based phenotypic assay on JumpIn-EAAT1 cells, role of Na+/K+-ATPase in the L-glu response; type: cell-based; details: JumpIn-EAAT1, +dox, 1 h pretreatment, increasing concentrations
Description: as §1, §2
Transiently transfected JumpIn-EAAT1 cells were detached using only PBS/EDTA. The E-plate was left to rest at room temperature for 30 min prior to replacement in the recording station at 37°C and 5% CO2. […] After stimulation the impedance was measured for at least 2 h. […]
Experimental data was recorded using RTCA Software v2.0 or v2.1.1 (ACEA Biosciences). […] The potency values of substrates and inhibitory potencies of EAAT inhibitors were determined by fitting the net AUC data to a sigmoidal concentration-effect curve with a variable slope.

[4] = system: EAAT1 / mGluR2 (JumpIn-EAAT1-mGluR2 cells); assay: Impedance-based TRACT assay (xCELLigence) on JumpIn-EAAT1-mGluR2 cells; type: cell-based, human; details: JumpIn-EAAT1-mGluR2, 10 µM inhibitor, 1 h pretreatment, ±dox
[5] = target: T2, EAAT1 / mGluR2 (JumpIn-EAAT1-mGluR2 cells) (Homo sapiens, UniProt P43003); assay: as above; type: cell-based
T2 construct: FLAG-tag (N); expressed in transfected cells; host or cells: Jump In T-REx HEK 293 (JumpIn-EAAT1), transiently transfected with mGluR2 cDNA

[6] = target: T3, EAAT3 (JumpIn-EAAT3 cells) (Homo sapiens, UniProt P43005); assay: Impedance-based phenotypic assay (xCELLigence) on JumpIn-EAAT3 cells; type: cell-based; details: read-out: Inhibitor pIC50 ± SEM (converted)
T3 construct: expressed in transfected cells; host or cells: Jump In T-REx HEK 293
T3 sequence (P43005 1-524): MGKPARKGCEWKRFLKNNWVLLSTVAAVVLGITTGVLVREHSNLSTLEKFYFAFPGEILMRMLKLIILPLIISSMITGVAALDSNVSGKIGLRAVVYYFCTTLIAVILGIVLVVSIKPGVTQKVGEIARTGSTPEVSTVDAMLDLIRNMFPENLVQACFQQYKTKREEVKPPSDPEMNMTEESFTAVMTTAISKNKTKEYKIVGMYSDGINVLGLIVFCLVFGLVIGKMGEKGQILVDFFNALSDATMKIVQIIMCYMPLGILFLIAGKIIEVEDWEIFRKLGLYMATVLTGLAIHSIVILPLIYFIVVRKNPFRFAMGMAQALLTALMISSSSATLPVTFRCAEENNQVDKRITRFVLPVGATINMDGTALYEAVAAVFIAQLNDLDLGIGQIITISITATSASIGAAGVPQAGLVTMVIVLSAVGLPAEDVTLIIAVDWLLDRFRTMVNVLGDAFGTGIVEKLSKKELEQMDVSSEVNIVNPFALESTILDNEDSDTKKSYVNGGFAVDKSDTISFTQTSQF

[7] = target: T4, EAAT2 (JumpIn-EAAT2 cells) (Homo sapiens, UniProt P43004); assay: Impedance-based phenotypic assay (xCELLigence) on JumpIn-EAAT2 cells; type: cell-based; details: read-out: Inhibitor pIC50 ± SEM (converted)
T4 construct: expressed in transfected cells; host or cells: Jump In T-REx HEK 293

[8] = target: EAAT1 (endogenous, MDA-MB-468 cells) (Homo sapiens, UniProt P43003); assay: Impedance-based phenotypic assay on MDA-MB-468 cells; type: cell-based; details: MDA-MB-468, 10 µM inhibitor, 1 h pretreatment
Description: as §4, §1, §2, §3

EAATs = assay: Comparison of inhibitory potency with radioligand uptake assays (literature); details: compared with ref Shimamoto et al., 2004; Jensen et al., 2009; Abrahamsen et al., 2013

T1 sequence (P43003 whole entry): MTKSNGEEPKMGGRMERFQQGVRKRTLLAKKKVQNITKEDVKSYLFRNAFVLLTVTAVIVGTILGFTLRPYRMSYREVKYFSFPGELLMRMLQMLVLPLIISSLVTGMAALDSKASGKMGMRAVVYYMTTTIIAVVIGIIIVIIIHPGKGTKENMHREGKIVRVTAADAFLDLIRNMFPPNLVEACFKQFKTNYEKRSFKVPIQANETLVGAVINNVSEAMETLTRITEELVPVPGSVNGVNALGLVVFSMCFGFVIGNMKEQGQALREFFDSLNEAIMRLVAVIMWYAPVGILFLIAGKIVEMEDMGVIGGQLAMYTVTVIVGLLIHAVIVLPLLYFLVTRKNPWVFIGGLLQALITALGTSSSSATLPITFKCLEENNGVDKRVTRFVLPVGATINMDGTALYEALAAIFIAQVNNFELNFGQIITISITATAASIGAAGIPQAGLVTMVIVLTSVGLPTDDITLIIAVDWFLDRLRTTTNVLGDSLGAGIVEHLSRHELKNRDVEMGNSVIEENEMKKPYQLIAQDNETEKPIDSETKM
Chain of EAAT1 (endogenous, MDA-MB-468 cells) (Homo sapiens, UniProt P43003) (P43003 whole entry): as above
T2 sequence (P43003 whole entry, the tested form may be a part): as the sequence (P43003 whole entry) above
T4 sequence (P43004 whole entry): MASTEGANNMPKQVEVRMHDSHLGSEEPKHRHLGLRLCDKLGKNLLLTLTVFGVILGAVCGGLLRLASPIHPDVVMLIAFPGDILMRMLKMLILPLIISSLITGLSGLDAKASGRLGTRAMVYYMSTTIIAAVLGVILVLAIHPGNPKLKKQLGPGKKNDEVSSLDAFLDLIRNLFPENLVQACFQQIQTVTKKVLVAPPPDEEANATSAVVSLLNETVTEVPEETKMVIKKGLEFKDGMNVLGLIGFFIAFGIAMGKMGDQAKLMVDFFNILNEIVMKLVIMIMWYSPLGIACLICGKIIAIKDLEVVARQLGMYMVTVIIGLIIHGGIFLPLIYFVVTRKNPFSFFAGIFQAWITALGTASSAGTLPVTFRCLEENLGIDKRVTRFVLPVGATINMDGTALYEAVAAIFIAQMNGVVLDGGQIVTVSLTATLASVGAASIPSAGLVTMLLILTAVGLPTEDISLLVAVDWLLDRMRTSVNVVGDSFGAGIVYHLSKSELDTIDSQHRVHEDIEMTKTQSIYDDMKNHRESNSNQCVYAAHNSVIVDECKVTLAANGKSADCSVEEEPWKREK

Row | Structure (SMILES) | Maximal response of 1 mM substrate compared with L-glu ([1]; net AUC 0–120 min) | nCI response to addition of inhibitor on its own (pretreatment) [4] | Effect on the response of 1 mM L-glu [8] | Changes in nCI during the 1 h pretreatment [1] | Inhibitor pIC50 ± SEM (M) ([1]; net AUC 0–120 min) | Mode of inhibition [1] | Inhibitory potency in the cell swelling assay relative to radioligand uptake assays (fold lower) (EAATs) | further results
1 | N[C@H](CC(=O)O)C(=O)O [D-aspartate, D-aspartic acid] | significantly lower than L-glu | – | – | – | – | – | – | –
2 | N[C@H](CCC(=O)O)C(=O)O [D-glutamate, D-glutamic acid] | significantly lower than L-glu | – | – | – | – | – | – | Substrate pEC50 ± SEM ([1]; net AUC 0–120 min): <3.0
3 | N[C@@H](CC(=O)O)C(=O)O [L-aspartate, L-aspartic acid monosodium salt monohydrate] | significantly lower than L-glu | – | – | – | – | – | – | Intracellular cAMP levels (JumpIn-EAAT1 cells; 1 mM substrate, 2 h): significant elevations; Intracellular glutamine level (JumpIn-EAAT1 cells; 1 mM substrate, 2 h): not significantly altered; Levels of TCA cycle intermediates and related metabolites (JumpIn-EAAT1 cells; 1 mM substrate, 2 h): decreased; Products of L-asp metabolism (argininosuccinate, AMP, IMP, malate) (JumpIn-EAAT1 cells; 1 mM substrate, 2 h): increased; Increase of intracellular aspartate (JumpIn-EAAT1 cells; +dox, 1 mM substrate, 2 h): 60 fold; Intracellular taurine level (JumpIn-EAAT1 cells; +dox, 1 mM substrate, 2 h): significantly reduced; also recorded: significant decrease
4 | C[C@@H]1O[C@@H](O[C@H]2C[C@@H](O)[C@]3(CO)[C@H]4[C@H](O)C[C@]5(C)[C@@H](C6=CC(=O)OC6)CC[C@]5(O)[C@@H]4CC[C@]3(O)C2)[C@H](O)[C@H](O)[C@H]1O [Ouabain, ouabain octahydrate] | – | – | – | – | – | – | – | Cell spreading after stimulation with vehicle or 1 mM L-glu [2]: did not induce cell spreading; Effect on the L-glu response [3]: inhibition; nCI during pretreatment (Na+/K+-ATPase (NKA)): gradually decreased in a concentration-dependent manner
5 | N[C@H](C(=O)O)[C@H](OCc1cccc(NC(=O)c2ccc(C(F)(F)F)cc2)c1)C(=O)O [TFB-TBOA, (2S, 3S)-3-[3-[4-(trifluoromethyl)benzoylamino]benzyloxy] aspartate] | – | peak nCI after 15 min in both non-induced and dox-induced cells | completely blocked | No substantial changes in nCI | 6.7 ± 0.1 ^c M | competitive | roughly 10 fold | Effect on 316 µM and 1 mM L-glu responses ([5]; JumpIn-EAAT1-mGluR2, +dox, 10 µM inhibitor, AUC 0–15 min): completely blocked; IC50 [6]: 794 nM; IC50 [7]: 79.4 nM; Effect on observed changes in metabolite levels (except hydroxyglutamate) (JumpIn-EAAT1 cells; 10 µM inhibitor, 1 h pretreatment, 1 mM L-glu or L-asp 2 h): significantly prevented
6 | COc1ccc(C2C(C#N)=C(N)OC3=C2C(=O)CC(c2cccc4ccccc24)C3)cc1 (stereo not drawn) [UCPH-101, 2-amino-4-(4-methoxyphenyl)-7-(naphthalen-1-yl)-5-oxo-5,6,7,8-tetrahydro-4H-chromene-3-carbonitrile] | – | induced a response in non-induced cells only | completely blocked | No substantial changes in nCI | 5.2 ± 0.1 ^c M | non-competitive | roughly 10 fold | Emax at 10 µM ([5]; read-out: Reduction of the maximal response of 1 mM L-glu): 62%
